Laboratory results reported in patent US12161620B2, “Devices and methods for facilitating and controlling use of a medication” (priority 2013, dated 2024).
Like-named read-outs stand apart in the source and are kept apart here.

How the values were obtained:
[1] = cited from earlier work
[2] = PubChem; cited from earlier work
[3] = pungency; cited from earlier work
[4] = cited from earlier work; remark: listed apart in the source
[5] = Taste of denatonium saccharide solution before and after activated carbon treatment (Example 11); conditions: 90 ppm in water
Experimental: Example 11. In a lab evaluation, 90 ppm denatonium saccharide in water was prepared. To 40 mL samples were added 100 mg and […], respectively, of powdered activated carbon Ecosorb EC-947. The samples were stirred for about 2 days to equilibrate.

[6] = taste detection; cited from earlier work
[7] = in vivo; cited from earlier work
[8] = Taste of sucrose octaacetate solution before and after lime treatment (Example 10); conditions: 60 ppm in water

## CCN(Cc1cccc(S(=O)(=O)O)c1)c1ccc(C(=C2C=CC(=[N+](CC)Cc3cccc(S(=O)(=O)O)c3)C=C2)c2ccccc2S(=O)(=O)[O-])cc1 [Brilliant Blue]
[1]
  solubility in water: water-soluble

## COc1cc(CNC(=O)CCCC/C=C/C(C)C)ccc1O [Capsaicin, capsaicin]
[1]
  solubility in alcohol: soluble in alcohol
  water solubility: ~10 ppm
[2]
  LogP: 3.6
[3]
  threshold of effect: about 0.02 ppm

## CN(C)c1ccc(C(=C2C=CC(=[N+](C)C)C=C2)c2ccc(N(C)C)cc2)cc1.[Cl-] [Gentian Violet]
[1]
  solubility in water: soluble in water

## O=C(/C=C/C=C/c1ccc2c(c1)OCO2)N1CCCCC1 [Piperine, piperine]
[1]
  solubility in alcohol: soluble in alcohol
  water solubility: 40 ppm
[2]
  LogP: 3.5
[3]
  threshold of effect: about 1.35 ppm

## CC(=O)OCC(COC(C)=O)OC(C)=O [Triacetin, triacetin]
[4]; pH 9
  half-life: < 24 h
[4]; stable only around this pH
  pH around which stable: ~4

## CC[N+](CC)(CC(=O)Nc1c(C)cccc1C)Cc1ccccc1.O=C1[N-]S(=O)(=O)c2ccccc21 [denatonium saccharide]
[5]
  taste of untreated sample: intensely bitter
[5]; untreated, about 0.1 mL on the tongue
  duration of taste after administration: at least two hours

## CC[N+](CC)(CC(=O)Nc1c(C)cccc1C)Cc1ccccc1 [denatonium]
[6]
  level at which detectable: 0.01 ppm

## CC(=O)OC[C@H]1O[C@@](COC(C)=O)(O[C@H]2O[C@H](COC(C)=O)[C@@H](OC(C)=O)[C@H](OC(C)=O)[C@H]2OC(C)=O)[C@@H](OC(C)=O)[C@@H]1OC(C)=O [sucrose octaacetate]
[1]
  solubility in alcohol: very soluble in alcohols
  water solubility: 900 ppm
[1]; listed as Sucrose octaacetate
  water solubility: about 900 ppm
[7]
  dose that is not lethal: 5000 mg/kg
[6]
  level at which detectable: 10 ppm
[8]
  taste of untreated solution: intensely bitter
[2]
  LogP: −0.9
